Measured values published in patent publication US8344028B2, “Gamma-amino-butyric acid derivatives as GABAB receptor ligands” (XenoPort, Inc., priority 2009, dated 2013).

Columns and labels:
GABAB receptor = target: T1, GABAB receptor (Rattus norvegicus, UniProt Q9Z0U4); test: [3H]CGP54626 rat brain GABAB receptor binding assay; conditions: [3H]CGP54626 rat brain binding assay
T1 construct: from tissue; host or cells: rat cerebral cortex membranes

[1] = target: T2, recombinant human GABABR1a2 (Homo sapiens, UniProt Q9UBS5); test: cAMP assay for determining GABAB receptor agonist activity; format: cell-based; conditions: cells expressing recombinant human GABABR1a2; read-out: cAMP EC50
T2 construct: expressed in transfected cells; host or cells: HEK cells
T2 sequence (Q9UBS5 15-961 limits assumed): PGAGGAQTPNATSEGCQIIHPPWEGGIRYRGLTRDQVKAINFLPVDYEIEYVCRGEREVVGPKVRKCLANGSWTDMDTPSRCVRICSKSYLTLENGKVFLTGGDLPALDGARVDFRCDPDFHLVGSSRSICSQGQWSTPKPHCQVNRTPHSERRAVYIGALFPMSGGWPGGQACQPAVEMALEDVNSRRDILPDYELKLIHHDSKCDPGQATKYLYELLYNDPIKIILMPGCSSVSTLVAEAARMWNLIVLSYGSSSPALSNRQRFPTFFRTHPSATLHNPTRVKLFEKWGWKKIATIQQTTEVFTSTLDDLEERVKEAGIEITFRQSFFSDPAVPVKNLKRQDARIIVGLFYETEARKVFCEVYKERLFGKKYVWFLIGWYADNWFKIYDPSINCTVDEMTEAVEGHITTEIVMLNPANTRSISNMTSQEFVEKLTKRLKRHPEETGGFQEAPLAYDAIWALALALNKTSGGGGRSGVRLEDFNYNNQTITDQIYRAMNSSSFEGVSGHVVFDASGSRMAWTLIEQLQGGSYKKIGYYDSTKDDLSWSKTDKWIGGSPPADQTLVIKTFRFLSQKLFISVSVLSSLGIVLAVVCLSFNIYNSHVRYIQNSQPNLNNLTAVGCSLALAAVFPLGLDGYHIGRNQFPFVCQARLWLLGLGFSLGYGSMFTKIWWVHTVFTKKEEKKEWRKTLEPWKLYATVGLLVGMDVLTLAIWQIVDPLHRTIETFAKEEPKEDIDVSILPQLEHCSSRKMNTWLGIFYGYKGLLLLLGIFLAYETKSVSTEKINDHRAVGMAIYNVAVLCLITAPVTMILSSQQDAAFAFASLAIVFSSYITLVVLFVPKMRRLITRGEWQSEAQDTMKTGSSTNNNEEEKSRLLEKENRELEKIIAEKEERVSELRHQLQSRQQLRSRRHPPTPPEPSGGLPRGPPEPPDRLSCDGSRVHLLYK
T2 sequence (O75899 42-941 partner): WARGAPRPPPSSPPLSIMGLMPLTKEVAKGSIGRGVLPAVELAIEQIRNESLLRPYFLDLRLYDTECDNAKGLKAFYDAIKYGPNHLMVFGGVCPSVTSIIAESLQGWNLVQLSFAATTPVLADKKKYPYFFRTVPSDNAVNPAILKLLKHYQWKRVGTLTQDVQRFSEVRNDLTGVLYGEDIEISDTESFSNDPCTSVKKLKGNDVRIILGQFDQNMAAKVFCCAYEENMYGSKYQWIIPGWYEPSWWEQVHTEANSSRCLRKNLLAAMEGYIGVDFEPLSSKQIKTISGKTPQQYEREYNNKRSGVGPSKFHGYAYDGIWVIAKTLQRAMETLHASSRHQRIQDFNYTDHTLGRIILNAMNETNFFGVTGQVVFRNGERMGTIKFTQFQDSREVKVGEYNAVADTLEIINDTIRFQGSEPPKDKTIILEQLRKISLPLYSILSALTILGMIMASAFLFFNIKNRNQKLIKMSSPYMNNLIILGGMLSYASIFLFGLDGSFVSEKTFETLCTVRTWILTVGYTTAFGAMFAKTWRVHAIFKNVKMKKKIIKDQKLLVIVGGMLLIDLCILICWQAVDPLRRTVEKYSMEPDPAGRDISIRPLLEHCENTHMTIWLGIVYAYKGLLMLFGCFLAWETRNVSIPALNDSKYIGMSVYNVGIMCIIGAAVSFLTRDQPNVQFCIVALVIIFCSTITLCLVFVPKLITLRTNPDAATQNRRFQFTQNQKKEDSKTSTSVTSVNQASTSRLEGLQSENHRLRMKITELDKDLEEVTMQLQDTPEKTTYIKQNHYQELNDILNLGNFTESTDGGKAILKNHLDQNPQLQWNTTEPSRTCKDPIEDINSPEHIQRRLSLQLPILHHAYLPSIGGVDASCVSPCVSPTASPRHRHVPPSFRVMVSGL

[2] = target: T2, recombinant human GABABR1a2; test: Ca2+ assay for determining GABAB receptor agonist activity; format: cell-based; conditions: cells expressing recombinant human GABABR1a2
[3] = Bioavailability following oral administration to rats; conditions: rat, in vivo
Method: Rats were obtained commercially and were pre-cannulated in the jugular vein. Animals were conscious at the time of the experiment. All animals were fasted overnight and until 4 hours post-dosing of a compound.
Rat blood samples (0.3 mL/sample) were collected from all animals prior to dosing and at different time-points up to 24 h post-dose into tubes containing EDTA. Two aliquots (100 μL each) were quenched with 300 μL methanol and stored at −20° C. prior to analysis.
To prepare analysis standards, 90 μL of rat blood was quenched with 300 μL methanol followed by 10 μL of spiking standard and/or 20 μL of internal standard. The sample tubes were vortexed for at least 2 min and then centrifuged at 3400 rpm for 20 min. The supernatant was then transferred to an injection vial or plate for analysis by LC-MS-MS.
To prepare samples for analysis, 20 μL of internal standard was added to each quenched sample tube. The sample tubes were vortexed for at least 2 min and then centrifuged at 3400 rpm for 20 min. The supernatant was then transferred to an injection vial or plate for analysis by LC-MS-MS.
LC/MS/MS analysis was performed using an API 2000 or API 4000 mass spectrometer equipped with a Shimadzu and or Agilent HPLC system are used for determination concentration of compounds in rat blood. A Varian Polaris C18, 3μ 50×4.6 mm column was used. 0.1% Formic acid in water and acetonitrile were applied as the mobile phase. Runs were 4.0 min. […] L-4-Chlorophenylalanine was used as an internal standard at m/z 200.00/154.00.
Non-compartmental analysis was performed using WinNonlin software (v.3.1 Professional Version, Pharsight Corporation, Mountain View, Calif.) on individual animal profiles. […]
The oral bioavailability (F %) of a compound was determined by comparing the area under the compound concentration vs time curve (AUC) following oral administration of a prodrug of a GABAB ligand with the AUC of the compound concentration vs time curve following intravenous administration of the GABAB ligand on a dose normalized basis.

T1 sequence (Q9Z0U4 20-960): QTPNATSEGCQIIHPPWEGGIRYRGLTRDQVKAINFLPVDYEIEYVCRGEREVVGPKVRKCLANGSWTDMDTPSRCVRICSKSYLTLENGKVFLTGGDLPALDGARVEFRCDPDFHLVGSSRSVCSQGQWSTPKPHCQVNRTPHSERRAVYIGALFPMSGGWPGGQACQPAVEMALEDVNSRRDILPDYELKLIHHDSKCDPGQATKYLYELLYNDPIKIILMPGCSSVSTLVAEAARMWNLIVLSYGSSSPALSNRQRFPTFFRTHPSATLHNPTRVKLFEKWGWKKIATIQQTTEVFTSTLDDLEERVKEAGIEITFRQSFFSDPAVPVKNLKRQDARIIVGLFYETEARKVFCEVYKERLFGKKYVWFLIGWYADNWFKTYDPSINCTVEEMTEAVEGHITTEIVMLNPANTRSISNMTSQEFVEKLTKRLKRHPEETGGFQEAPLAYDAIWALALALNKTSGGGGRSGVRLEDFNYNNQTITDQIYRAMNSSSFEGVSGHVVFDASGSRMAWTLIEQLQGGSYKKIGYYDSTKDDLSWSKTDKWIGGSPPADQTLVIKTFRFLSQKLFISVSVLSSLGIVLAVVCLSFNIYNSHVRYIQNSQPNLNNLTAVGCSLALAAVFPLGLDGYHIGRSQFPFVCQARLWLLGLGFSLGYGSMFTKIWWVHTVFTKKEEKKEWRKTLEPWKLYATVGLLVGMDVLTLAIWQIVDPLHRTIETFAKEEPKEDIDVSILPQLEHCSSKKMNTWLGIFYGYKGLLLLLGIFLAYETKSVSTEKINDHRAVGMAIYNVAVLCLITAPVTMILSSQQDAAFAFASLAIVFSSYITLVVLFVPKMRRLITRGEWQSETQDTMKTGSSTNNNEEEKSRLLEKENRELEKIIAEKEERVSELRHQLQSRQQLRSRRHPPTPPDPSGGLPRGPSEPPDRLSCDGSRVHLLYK
T1 sequence (O88871 41-940 partner): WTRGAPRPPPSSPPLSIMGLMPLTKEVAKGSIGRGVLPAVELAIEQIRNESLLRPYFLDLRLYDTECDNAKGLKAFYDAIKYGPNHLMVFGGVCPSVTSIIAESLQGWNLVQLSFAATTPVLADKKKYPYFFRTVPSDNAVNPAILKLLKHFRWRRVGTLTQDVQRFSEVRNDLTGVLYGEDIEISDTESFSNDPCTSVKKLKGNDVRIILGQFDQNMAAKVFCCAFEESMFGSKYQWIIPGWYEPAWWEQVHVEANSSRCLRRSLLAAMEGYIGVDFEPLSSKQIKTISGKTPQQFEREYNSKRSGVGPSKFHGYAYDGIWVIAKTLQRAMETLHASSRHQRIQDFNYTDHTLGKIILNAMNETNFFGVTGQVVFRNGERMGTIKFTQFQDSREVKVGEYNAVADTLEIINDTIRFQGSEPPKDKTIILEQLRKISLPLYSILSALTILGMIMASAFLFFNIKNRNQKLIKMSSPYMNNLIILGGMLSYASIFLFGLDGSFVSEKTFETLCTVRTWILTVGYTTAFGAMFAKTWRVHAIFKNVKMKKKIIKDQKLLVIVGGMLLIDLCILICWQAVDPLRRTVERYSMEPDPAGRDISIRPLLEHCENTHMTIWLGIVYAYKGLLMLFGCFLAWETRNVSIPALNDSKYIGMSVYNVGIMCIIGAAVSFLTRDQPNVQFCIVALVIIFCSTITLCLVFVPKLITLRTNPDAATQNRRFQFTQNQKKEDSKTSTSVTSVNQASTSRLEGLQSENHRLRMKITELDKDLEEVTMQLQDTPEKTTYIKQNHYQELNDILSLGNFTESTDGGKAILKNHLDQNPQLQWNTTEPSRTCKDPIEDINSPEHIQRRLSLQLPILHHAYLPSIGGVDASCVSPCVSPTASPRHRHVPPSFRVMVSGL

Cl.NC[C@H](CC(=O)O)c1ccc(Cl)c(OCc2ccncc2)c1 [Example 68, (3R)-4-Amino-3-[4-chloro-3-(4-pyridylmethoxy)phenyl]butanoic acid hydrochloride]
IC50 (GABAB receptor): < 25 µM | EC50 [1]: < 0.1 µM | EC50 [2]: < 0.7 µM | oral bioavailability (F %) [3]: greater than 10%
